Test results from patent US20220127297A1, “Novel Antibacterial 3"-Derivatives Of 4,6-Disubstituted 2,5-Dideoxystreptamine Aminoglycoside Antibiotics” (AGILeBiotics B.V., priority 2018, published 2022).
≈ marks a conversion by molar mass, not a printed value. Like-named read-outs stand apart in the source and are kept apart here.

Experiments:
Assay in all cases: MIC 90, broth micro-dilution, ATCC strains
S. aureus ATCC 29213 = format: cell-based, Staphylococcus aureus
From the text: (§1) 3.3 Protocol for MIC Determination (ATCC Strains)
(§2) Tested reference compounds. Amikacin sulfate (Cat. No. 01693, Chem-Impex), Gentamicin sulfate (Cat. No. G4918, Sigma Aldrich), Azithromycin (Cat. No. 1046056, USP), Ceftazidime Pentahydrate (Cat. No. 1098130, USP), Ciprofloxacin (Cat. No. 1134313, USP), Meropenem (Cat. No. 1392454, USP), Rifampicin (Cat. No. R0079, TCI), Tobramycin (Cat. No. 1667508, USP), Vancomycin (Cat. No. 1709007 USP).
(§3) Microbial strains. Staphylococcus aureus ATCC 29213, Staphylococcus aureus ATCC BAA-1717, Escherichia coli ATCC BAA-1025, Klebsiella pneumoniae ATCC BAA-1705, Klebsiella pneumoniae ATCC BAA-2524, Pseudomonas aeruginosa ATCC 27853, Pseudomonas aeruginosa ATCC BAA-2108, Acinetobacter baumannii ATCC BAA-1800.
(§4) Culture media and equipment. BBL™ Mueller Hinton Broth (REF 275730, Lot. 7009699, Becton Dickinson), Mueller Hinton Agar 2 (Ref. No. 97580-500G-F, Lot. No. BCBV4646, Sigma), Dulbecco's Modified Eagle's Medium (DMEM) (Cat. No. 41966-029, Gibco), Minimum Essential Medium (MEM) (Cat. No. 42360-024, Gibco), Fetal bovine serum (FBS) (Cat. No. F7524, Sigma), Non-essential amino acids (NEAA) (100×, Cat. No. 11140-035, Gibco), Sodium Pyruvate (100 mM, 100×, Cat. No. 11360-039, Gibco), Staurosporine (Cat. No. B50188, Biotrend), Cellstar 96-well plates U-bottom (Cat. No. 650180, Lot. No. E14123EB, Greiner Bio-one), CellTiter-Glo (Cat. No. G7573, Promega), 96-well plate V-bottom (Cat. No. 651201, Greiner), 96-well clear plate, U-bottom, (Cat. No. 650180, Greiner), 96-well white plate with clear bottom (Cat. No. 655098, Greiner), 96-well deep well plate 1 mL (Cat. No. 278606, Nunc), Sodium Pyruvate (100 mM, 100×, Gibco, Cat #11360-039), Incubator (Binder), Laminar flow (Thermo Scientific), BioPhotometer (Eppendorf); DEN-1B (McFarland Densitometer, Biosan); McFarland standards (polymer microparticle suspension, Biosan).
(§5) Compound preparation. The test compounds and reference antibiotics were prepared according to CLSI guidelines (Clinical and Laboratory Standards Institute (CLSI); Methods for dilution antimicrobial susceptibility tests for bacteria that grow aerobically; approved standard—ninth edition, M07-A9, Vol. 32, No. 2, 2012) as 5 mg/mL stock solutions in DMSO. Out of these DMSO solutions, 43.5 μL was transferred to 1656.5 μL of MH media in a deep well plate. Out of these working solutions 100 μL was transferred to wells in the third column of 96-well plates. Plates were previously filled with 50 μL of MH media in all wells except for the wells in the third column. After compound and antibiotic addition, 50 μL was transferred from the third to the fourth column, then from the fourth to the fifth and so on. In this manner, the compounds and antibiotics were plated in 96-well plate in serial two-fold dilutions giving a final concentration range of 64-0.125 μg/mL.
(§6) Preparation of microorganisms. Designations used for clinical isolates were from the Fidelta strain collection bank. Microorganisms used were all revived from skim milk storage at −70° C. by plating them on MH agar plates. The following day the single colony of each microorganism was again streaked on fresh agar plates. The next day, using the direct colony suspension method, broth solutions that achieve turbidity equivalent to 0.5 McFarland standard for each microorganism were prepared. […] Out of these suspensions, actual inoculums were prepared by diluting them 100× with MH media giving a final microorganism count of 2-8×10^5 CFU/mL. For each strain of microorganisms, 20 mL of these inoculum solutions were prepared. From the second to the twelfth column of 96-well plates, 50 μL of these solutions were transferred per well. To the first column, 50 μL per well of pure growth media was added. In this manner the first column was used as sterility control of media, the second column was used as control of microorganism's growth and the rest of the plate was used for MIC determination. All plates were incubated for 16-24 h at 37° C. […]

[1] = system: E. coli ATCC BAA-1025 (= BL 21); format: cell-based, Escherichia coli
From the text: as §1, §2, §3, §4, §5, §6

P. aeruginosa ATCC 27853 = format: cell-based, Pseudomonas aeruginosa
From the text: as §1, §2, §3, §4, §5, §6

[2] = Staphylococcus aureus, ATCC29213, read-out: MIC 90
[3] = Escherichia coli, ATCCBAA1025, read-out: MIC 90
[4] = Pseudomonas aeruginosa, ATCC27853, read-out: MIC 90

NCC[C@H](O)C(=O)N[C@@H]1C[C@H](N)[C@@H](O[C@H]2O[C@H](CN)[C@@H](O)[C@@H](O)[C@H]2O)[C@H](O)[C@H]1O[C@H]1O[C@H](CO)[C@@H](O)[C@H](N)[C@H]1O [ABX3002, 3′Epi-KanaA-AHB]
MIC90 (S. aureus ATCC 29213): 16 µM (≈ 9.37 µg/mL)
MIC90 [1]: 32 µM (≈ 18.7 µg/mL)
MIC90 (P. aeruginosa ATCC 27853): 32 µM (≈ 18.7 µg/mL)

N=C(N)NC1[C@@H](O)C(OC2[C@@H](F)[C@H](O[C@H]3OC(CN)[C@@H](O)[C@H](O)C3O)C(N)C[C@H]2NC(=O)[C@@H](O)CCN)O[C@H](CO)[C@H]1O (stereo partly drawn) [ABX3003, 3′epi-KanaA-AHB-F-Gua]
MIC90 (S. aureus ATCC 29213; [2]): 2 µM (≈ 1.26 µg/mL)
MIC90 [1, 3]: 4 µM (≈ 2.52 µg/mL)
MIC90 (P. aeruginosa ATCC 27853; [4]): 8 µM (≈ 5.04 µg/mL)

NCCC(O)C(=O)NC1CC(N)C(OC2OC(CN)C(O)C(O)C2O)C(F)C1OC1OC(CO)C(O)C(N)C1O (stereo not drawn) [ABX3005, 3′Epi-KanaA-AHB-F]
MIC90 (S. aureus ATCC 29213): 4 µM (≈ 2.35 µg/mL)
MIC90 [1]: 8 µM (≈ 4.7 µg/mL)
MIC90 (P. aeruginosa ATCC 27853): 8 µM (≈ 4.7 µg/mL)

NCC[C@H](O)C(=O)N[C@@H]1CC(N)[C@@H](O[C@H]2OC(CN)[C@@H](O)[C@@H](O)C2N)[C@H](O)C1OC1O[C@H](CO)[C@@H](O)C(N)[C@H]1O (stereo partly drawn) [ABX4002, 3′Epi-KanaB-AHB]
MIC90 (S. aureus ATCC 29213): 2 µM (≈ 1.17 µg/mL)
MIC90 [1]: 8 µM (≈ 4.68 µg/mL)
MIC90 (P. aeruginosa ATCC 27853): 4 µM (≈ 2.34 µg/mL)

NCC[C@H](O)C(=O)N[C@@H]1CC(N)[C@@H](O[C@H]2OC(CN)[C@@H](O)[C@@H](O)C2N)[C@H](F)C1OC1O[C@H](CO)[C@@H](O)C(N)[C@H]1O (stereo partly drawn) [ABX4003, 3′Epi-KanaB-AHB-F]
MIC90 (S. aureus ATCC 29213): 4 µM (≈ 2.35 µg/mL)
MIC90 [1]: 4 µM (≈ 2.35 µg/mL)
MIC90 (P. aeruginosa ATCC 27853): 8 µM (≈ 4.69 µg/mL)

N=C(N)NC1[C@@H](O)C(OC2[C@@H](F)[C@H](O[C@H]3OC(CN)[C@@H](O)[C@H](O)C3N)C(N)C[C@H]2NC(=O)[C@@H](O)CCN)O[C@H](CO)[C@H]1O (stereo partly drawn) [ABX4004, 3′epi-KanaB-AHB-F-Gua]
MIC90 (S. aureus ATCC 29213; [2]): 2 µM (≈ 1.26 µg/mL)
MIC90 [1, 3]: 2 µM (≈ 1.26 µg/mL)
MIC90 (P. aeruginosa ATCC 27853; [4]): 4 µM (≈ 2.51 µg/mL)

N=C(N)N[C@@H]1[C@@H](O)[C@@H](O[C@@H]2[C@@H](O)[C@H](O[C@H]3O[C@H](CN)[C@@H](O)[C@@H](O)[C@H]3N)[C@@H](N)C[C@H]2NC(=O)[C@@H](O)CCN)O[C@H](CO)[C@H]1O [ABX4005, 3′Epi-KanaB-AHB-Gua]
MIC90 (S. aureus ATCC 29213): 2 µM (≈ 1.25 µg/mL)
MIC90 [1]: 8 µM (≈ 5.01 µg/mL)
MIC90 (P. aeruginosa ATCC 27853): 4 µM (≈ 2.51 µg/mL)

NCC[C@H](O)C(=O)N[C@@H]1CC(N)[C@@H](O[C@H]2OC(CN)[C@@H](O)CC2N)[C@H](O)C1OC1O[C@H](CO)[C@@H](O)C(N)[C@H]1O (stereo partly drawn) [ABX5004, Tobra-AHB]
MIC90 (S. aureus ATCC 29213): 1 µM (≈ 0.569 µg/mL)
MIC90 [1]: 2 µM (≈ 1.14 µg/mL)
MIC90 (P. aeruginosa ATCC 27853): 4 µM (≈ 2.27 µg/mL)

N=C(N)NC1[C@@H](O)C(OC2[C@@H](O)[C@H](O[C@H]3OC(CN)[C@@H](O)CC3N)C(N)C[C@H]2NC(=O)[C@@H](O)CCN)O[C@H](CO)[C@H]1O (stereo partly drawn) [ABX5005, Tobra-AHB-Gua]
MIC90 (S. aureus ATCC 29213): 1 µM (≈ 0.611 µg/mL)
MIC90 [1]: 2 µM (≈ 1.22 µg/mL)
MIC90 (P. aeruginosa ATCC 27853): 4 µM (≈ 2.44 µg/mL)

N=C(N)NC1C(O)[C@@H](CO)OC(OC2C(F)[C@H](O[C@H]3OC(CN)[C@@H](O)CC3N)C(N)C[C@H]2NC(=O)[C@@H](O)CCN)[C@@H]1O (stereo partly drawn) [ABX5006, Tobra-AHB-F-Gua]
MIC90 (S. aureus ATCC 29213; [2]): 0.5 µM (≈ 0.306 µg/mL)
MIC90 [1, 3]: 0.5 µM (≈ 0.306 µg/mL)
MIC90 (P. aeruginosa ATCC 27853; [4]): 0.25 µM (≈ 0.153 µg/mL)

N=C(NCCN)NC1C(O)[C@@H](CO)OC(OC2C(F)[C@H](O[C@H]3OC(CN)[C@@H](O)CC3N)C(N)C[C@H]2NC(=O)[C@@H](O)CCN)[C@@H]1O (stereo partly drawn) [ABX5020, Tobra-AHB-F-Gua-2-amino-ethyl]
MIC90 (S. aureus ATCC 29213; [2]): 0.25 µM (≈ 0.164 µg/mL)
MIC90 [1, 3]: 1 µM (≈ 0.656 µg/mL)
MIC90 (P. aeruginosa ATCC 27853; [4]): 0.25 µM (≈ 0.164 µg/mL)

NCC[C@H](O)C(=O)N[C@@H]1CC(N)[C@@H](O[C@H]2OC(CN)[C@@H](O)CC2N)[C@H](F)C1OC1O[C@H](CO)[C@@H](O)C(N)[C@H]1O (stereo partly drawn) [ABX5024, Tobra-AHB-F]
MIC90 (S. aureus ATCC 29213): 1 µM (≈ 0.571 µg/mL)
MIC90 [1]: 1 µM (≈ 0.571 µg/mL)
MIC90 (P. aeruginosa ATCC 27853): 2 µM (≈ 1.14 µg/mL)

N=C(NC[C@@H]1CCCN1)NC1[C@@H](O)C(OC2[C@@H](F)[C@H](O[C@H]3OC(CN)[C@@H](O)CC3N)C(N)C[C@H]2NC(=O)[C@@H](O)CCN)O[C@H](CO)[C@H]1O (stereo partly drawn) [ABX5026, Tobra-AHB-F-Gua (S) pyrrolidine-2-yl-methyl]
MIC90 (S. aureus ATCC 29213; [2]): 0.5 µM (≈ 0.348 µg/mL)
MIC90 [1, 3]: 1 µM (≈ 0.696 µg/mL)
MIC90 (P. aeruginosa ATCC 27853; [4]): 1 µM (≈ 0.696 µg/mL)

N=C(NCCCN)NC1[C@@H](O)C(OC2[C@@H](F)[C@H](O[C@H]3OC(CN)[C@@H](O)CC3N)C(N)C[C@H]2NC(=O)[C@@H](O)CCN)O[C@H](CO)[C@H]1O (stereo partly drawn) [ABX5030, Tobra-AHB-F-Gua-3-amino-propyl]
MIC90 (S. aureus ATCC 29213; [2]): 0.5 µM (≈ 0.335 µg/mL)
MIC90 [1, 3]: 1 µM (≈ 0.67 µg/mL)
MIC90 (P. aeruginosa ATCC 27853; [4]): 0.5 µM (≈ 0.335 µg/mL)

NCC[C@H](O)C(=O)N[C@@H]1C[C@H](N)[C@@H](O[C@H]2O[C@H](CN)[C@@H](O)[C@H](O)[C@H]2O)[C@H](O)[C@H]1O[C@H]1O[C@H](CO)[C@@H](O)[C@H](N)[C@H]1O [Amikacin, amikacin, reference compound]
MIC90 (S. aureus ATCC 29213; [2]): 4 µM (≈ 2.34 µg/mL)
MIC90 [1, 3]: 2 µM (≈ 1.17 µg/mL)
MIC90 (P. aeruginosa ATCC 27853; [4]): 1 µM (≈ 0.586 µg/mL)
